Results: patent publication US12428430B2 (BRISTOL-MYERS SQUIBB COMPANY, priority 2018, dated 2025)
pIC50, pKi: −log10 of the molar value.

How the values were obtained:
nerve-injured mice = settings: pretreatment; cited from earlier work
hLPA1 [1] = molecular target: T1, hLPA1 (Homo sapiens, UniProt Q92633); test: hLPA1 Binding
[2] = tested on: human foetal lung fibroblasts; settings: Tager et al. Nature Medicine 2008; cited from earlier work
[3] = tested on: mouse epithelial renal cell line, MCT; settings: co-treatment with LPA, MCT cells; cited from earlier work
UUO mice = settings: compared with LPA1 (−/−) mice; cited from earlier work
[4] = tested on: pancreatic cancer cell lines; settings: cited from earlier work
hLPA1 [5] = molecular target: T1, hLPA1; test: LPA1 functional antagonist assay (LPA-induced calcium flux in CHO cells overexpressing human LPA1); format: cell-based; design: expressed in transfected cells; host or cells: Chinese hamster ovary (CHO) cells; settings: antagonist mode, inhibition of calcium flux induced by 10 nM LPA, read-out: hLPA1 IC50
Summary of the method: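 IC50 values come from 4-parameter logistic fits and mark 50% block of the calcium flux evoked by 10 nM LPA. Human LPA1-overexpressing CHO cells were calcium-dye loaded at 37 °C, then given test compound (0.08 nM–5 μM, 0.5% DMSO, HEPES-buffered HBSS with 0.1% fatty-acid-free BSA) for 20 min at room temperature before agonist.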

T1 sequence (Q92633 whole entry): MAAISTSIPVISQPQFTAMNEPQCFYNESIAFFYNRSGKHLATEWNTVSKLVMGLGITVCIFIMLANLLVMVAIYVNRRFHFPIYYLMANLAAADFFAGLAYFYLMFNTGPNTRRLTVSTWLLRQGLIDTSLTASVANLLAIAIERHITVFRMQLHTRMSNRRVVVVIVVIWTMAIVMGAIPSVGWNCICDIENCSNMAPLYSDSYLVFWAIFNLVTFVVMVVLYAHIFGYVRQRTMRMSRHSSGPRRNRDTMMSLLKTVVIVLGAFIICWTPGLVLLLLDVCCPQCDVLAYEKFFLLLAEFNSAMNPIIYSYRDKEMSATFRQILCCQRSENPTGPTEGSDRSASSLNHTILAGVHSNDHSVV

For `C[C@@H](N)[C@H]1CC[C@H](C(=O)Nc2ccncc2)CC1` [Example Y-27632], the allodynia and hyperalgesia (nerve-injured mice) is listed as “completely abolished”.
For `Cc1noc(C23CCC(c4ccc(CC(=O)O)cc4)(CC2)OC3)c1NC(=O)O[C@H](C)C1CC1` [Example 55, (R)-2-(4-(4-(4-(((1-cyclopropyl-ethoxy)carbonyl)amino)-3-methyl-isoxazol-5-yl)-2-oxabicyclo[2.2.2]octan-1-yl)phenyl)acetic acid], the pKi (hLPA1 [1]) was 6.14.
For `Cc1noc(-c2ccc(CSCCC(=O)O)cc2)c1NC(=O)OC(C)c1ccccc1Cl` (centres unmarked) [Ki16425], the “chemotaxis of human foetal lung fibroblasts induced by BAL from IPF patients” value [2] is given as “blocked”, the “LPA-induced expression of the profibrotic cytokine CTGF” value [3] is given as “almost completely suppressed” and the “development of renal fibrosis in UUO mice” value (UUO mice) is given as “closely resembled the profile of LPA1 (−/−) mice”. The “in vitro migration in response to LPA and ascites from pancreatic cancer patients” value ([4]; Yamada et al, J. Biol. Chem. 2004) was “effectively blocked” and the “LPA-induced and ascites-induced invasion activity” value ([4]; highly peritoneal metastatic pancreatic cancer cell line) was “blocked”.
With `CC(C1CCC1)N(C)C(=O)OCc1c(-c2ccc(C34CCC(CC(=O)O)(CC3)OC4)cc2)cnn1C` (racemic) [Example 37, (rac)-2-(4-(4-(5-((((1-cyclobutyl-ethyl)(methyl)carbamoyl)oxy)methyl)-1-methyl-1H-pyrazol-4-yl)phenyl)-2-oxabicyclo[2.2.2]octan-1-yl)acetic acid] the pIC50 (hLPA1 [5]) was 6.78.
